Measurements from PMC9026428, “New Peptide Based Fluconazole Conjugates with Expanded Molecular Targets” (Pharmaceutics, 2022).
≈ marks a conversion by molar mass, not a printed value. Residues, ends and D or L forms follow the SMILES beside them. *: point of attachment. X1 = O=C(CCCC(=O)*)OC(Cn1cncn1)(Cn1cncn1)c1ccc(F)cc1F

What was measured:
Candida krusei DSM 11226 = assay: microbe, parasite or virus in culture; details: C. krusei DSM 11226, RPMI 1640/MOPS pH 7.0, 24 h, 37 °C, triplicate
Protocol: (§1) The assessment of antifungal potential of synthesized agents was carried out using four reference strains (C. albicans ATCC 10231, C. albicans SC5314, C. glabrata DSM […] and C. krusei DSM […]) and six clinical isolates of fluconazole-resistant C. albicans that were provided by the Hospital of Medical University of Gdansk, Poland. Moreover, four C. albicans isolates, assigned as B3, B4, Gu4 and Gu5, were used for investigation whether the synthesized fluconazole derivatives were effectively removed from the yeast cells by the drug efflux transporters, as in the case of fluconazole. These strains were kindly provided by Prof. Joachim Morschhäuser from University of Würzburg (Würzburg, Germany). Strains Gu4 and B3 were fluconazole-sensitive isolates obtained from early infection episodes, while Gu5 and B4 were the corresponding fluconazole-resistant isolates obtained from later episodes in the same patients treated with fluconazole. The lack of susceptibility of the Gu5 strain to fluconazole was a consequence of overexpression of CDR1/2 genes encoding ABC transporters, whereas the resistance of B4 strain was caused by overexpression of the MDR1 gene encoding a membrane transport protein of the major facilitator superfamily (MFS). All of these Candida spp. strains were maintained on YPD agar plates (1% (w/v) yeast extract, 2% (w/v) peptone, 2% (w/v) glucose, 2% (w/v) agar) at 30 °C for 16–24 h. For all of the assays aimed at assessing the antifungal potential of the synthesized agents, the yeasts were cultivated at 37 °C in RPMI 1640 medium (with L-glutamine, without sodium bicarbonate, Sigma-Aldrich, Darmstadt, Germany)) buffered to a pH of 7.0 with 0.165 M morpholinepropanesulfonic acid (MOPS) buffer (Sigma-Aldrich). In this study, we used the human foreskin fibroblast cell line Hs27 (ATCC CRL 1634TM) and the human endothelial cell line HUVEC (C2519A), purchased from Lonza Group AG, (Basel, Switzerland). The Hs27 cells were maintained in cell media consisting of Dulbecco’s modified Eagles medium (DMEM), (Corning, Arizona, USA) with 10% fetal bovine serum (FBS), (Corning, Port Elizabeth, South Africa), 1% penicillin/streptomycin (Sigma-Aldrich Inc., Darmstadt, Germany), and 1% L-glutamine (Corning, Arizona, USA). The human endothelial cell line was maintained in cell media consisting of Endothelial Cell Growth Medium-2 Single Quots Kit (Lonza, USA). Both cell lines were cultured in an incubator at 37 °C and 5% CO2.
(§2) Antifungal activity of the tested compounds against yeast cells was determined in 96-well plates as described in the CLSI document M27-A3 [39], with minor modifications (CLSI, 2008). […] The plates were incubated for 24 h at 37 °C. Each test was performed in triplicate. The final concentration of DMSO was ensured to be around 1% in all experiments.
(§3) For determination of minimum fungicidal concentrations (MFC), small aliquots of suspensions (around 10 μL) from each well were transferred using the pipette to YPD agar plates without inhibitors and incubated for 24 h at 37 °C.

[1] = test system: Candida albicans ATCC 10231; assay: microbe, parasite or virus in culture; details: C. albicans ATCC 10231, RPMI 1640/MOPS pH 7.0, 24 h, 37 °C, triplicate
Protocol: as §1, §2, §3

Candida albicans B4 = assay: microbe, parasite or virus in culture; details: C. albicans B4 (fluconazole-resistant, MDR1 overexpression), RPMI 1640/MOPS pH 7.0, 24 h, 37 °C, triplicate
Protocol: as §1, §2, §3

Candida albicans B3 = assay: microbe, parasite or virus in culture; details: C. albicans B3 (fluconazole-sensitive isolate), RPMI 1640/MOPS pH 7.0, 24 h, 37 °C, triplicate
Protocol: as §1, §2, §3

Candida albicans 604 = assay: microbe, parasite or virus in culture; details: C. albicans 604 (fluconazole-resistant clinical isolate), RPMI 1640/MOPS pH 7.0, 24 h, 37 °C, triplicate
Protocol: as §1, §2, §3

[2] = test system: Hs27 cells (human foreskin fibroblast cell line); assay: MTT cytotoxicity assay; details: Hs27 cells, MTT, 72 h, 37 °C, 100–1.5 μM, biological triplicates
Protocol: as §1
(§4) Hs27 and HUVEC mammalian cell lines were cultured as mentioned above. Once cell lines were about 80% confluent, cells were counted by a hemacytometer (Hausser Scientific, Horsham, PA, USA) and plated in 96-well microtiter plates at concentrations of 4500 cells per well for Hs27 and 2000 cells per well for HUVEC. Cells were allowed to attach overnight. […] The final concentration of DMSO was ensured to be around 1% in all experiments. Cells were incubated with studied compounds for 72 h at 37 °C and 5% CO2. After incubation, 20 µL of MTT solution in PBS (4 mg/mL) was added to all wells and incubated further for 3 h at 37 °C. Formed formazan crystals were dissolved in 150 µL DMSO, and absorbance was measured using an Asys UVM340 multi-well plate reader at λ = 540 nm. Cytotoxicity was determined compared to drug-free control. All experiments were performed in biological triplicates.

MTT cytotoxicity assay [3] = details: human
Protocol: as §1, §4

[4] = test system: HUVEC cells (human umbilical venous endothelial primary cells); assay: MTT cytotoxicity assay; details: HUVEC cells, MTT, 72 h, 37 °C, 100–1.5 μM, biological triplicates
Protocol: as §1, §4

MTT cytotoxicity assay [5] = details: human; remark: listed apart in the source
Protocol: as §1, §4

[6] = test system: Candida spp. strains tested; assay: Antifungal activity against the whole panel of strains tested; assay type: cell-based; details: panel of Table 2, 8–250 µM
Protocol: Antifungal activity of the tested compounds against yeast cells was determined in 96-well plates as described in the CLSI document M27-A3 [39], with minor modifications (CLSI, 2008). Suspensions of the microorganisms were prepared by taking one loop of pure culture into sterile water and adjusting optical density to 0.1 at 660 nm wavelength and further 50-fold dilution in RPMI 1640 medium, resulting in cell concentration of approximately 2 × 10^4 CFU/mL [21]. Then, 100 μL of cells were added to the wells of a 96-well microtiter plate that contained 16–500 μM tested compounds and 16–500 μM of FLC or 0.2–62 μM AmB. The plates were incubated for 24 h at 37 °C. Each test was performed in triplicate. […] The MIC90 was defined as the lowest concentration of drug showing no visible growth; MIC50 was defined as the concentration that yielded at least 50% growth inhibition when compared with the growth control well.

[7] = at least 50% growth inhibition vs growth control
[8] = lowest concentration with no visible growth

CSCC[C@H](NC(=O)[C@H](C)NC(=O)[C@H](CCCNC(=N)N)NC(=O)[C@H](CCCCN)NC(=O)[C@H](Cc1c[nH]c2ccccc12)NC(=O)[C@H](CCC(N)=O)NC(=O)[C@H](Cc1ccccc1)NC(=O)[C@H](CS)NC(=O)CCCC(=O)OC(Cn1cncn1)(Cn1cncn1)c1ccc(F)cc1F)C(=O)N[C@@H](CCCNC(=N)N)C(=O)N[C@@H](CCCCN)C(=O)N[C@H](C(=O)N[C@@H](CCCNC(=N)N)C(N)=O)C(C)C [FLCpOH-HLopt2-NH2] (X1-CFQWKRAMRKVR-NH2)
MIC50 (Candida krusei DSM 11226; [7]): >250 µM
MIC90 (Candida krusei DSM 11226; [8]): >250 µM
MIC50 [1, 7]: 125 µM (≈ 251 µg/mL)
MIC90 [1, 8]: 250 µM (≈ 503 µg/mL)
MIC50 (Candida albicans B4; [7]): >250 µM
MIC90 (Candida albicans B4; [8]): >250 µM
MIC50 (Candida albicans B3; [7]): >250 µM
MIC90 (Candida albicans B3; [8]): >250 µM
MIC50 (Candida albicans 604; [7]): >250 µM
MIC90 (Candida albicans 604; [8]): >250 µM
In vitro cytotoxicity IC90 ± SEM [2]: >100 µM
IC50 at 72 h (MTT cytotoxicity assay [3]): > 100 µM
In vitro cytotoxicity IC90 ± SEM [4]: >100 µM
IC50 at 72 h (MTT cytotoxicity assay [5]): > 100 µM
antifungal activity against the strains tested, in words [6]: moderately or poorly active
